Results on six molecules are retold here after ChEMBL document CHEMBL2062513, “Pd-mediated functionalization of polysubstituted pyrroles: their evaluation as potential inhibitors of PDE4” (Bioorg Med Chem Lett, 2012).

In assay [1] the target is 3',5'-cyclic-AMP phosphodiesterase 4B (Homo sapiens) (UniProt Q07343). As to the kind of experiment: Inhibition of recombinant His-tagged PDE4B expressed in Sf9 cells at 30 uM preincubated for 15 mins before cAMP addition measured after 1 hr by luminescence assay.
For assay [2] the target is unchanged. As to the kind of experiment: Inhibition of recombinant His-tagged PDE4B expressed in Sf9 cells preincubated for 15 mins before cAMP addition measured after 1 hr by luminescence assay.

What is called inhibition is the share of the control response that was lost under treatment.

The structures appear in SMILES notation.

Chain of 3',5'-cyclic-AMP phosphodiesterase 4B (Homo sapiens) (Q07343 whole entry): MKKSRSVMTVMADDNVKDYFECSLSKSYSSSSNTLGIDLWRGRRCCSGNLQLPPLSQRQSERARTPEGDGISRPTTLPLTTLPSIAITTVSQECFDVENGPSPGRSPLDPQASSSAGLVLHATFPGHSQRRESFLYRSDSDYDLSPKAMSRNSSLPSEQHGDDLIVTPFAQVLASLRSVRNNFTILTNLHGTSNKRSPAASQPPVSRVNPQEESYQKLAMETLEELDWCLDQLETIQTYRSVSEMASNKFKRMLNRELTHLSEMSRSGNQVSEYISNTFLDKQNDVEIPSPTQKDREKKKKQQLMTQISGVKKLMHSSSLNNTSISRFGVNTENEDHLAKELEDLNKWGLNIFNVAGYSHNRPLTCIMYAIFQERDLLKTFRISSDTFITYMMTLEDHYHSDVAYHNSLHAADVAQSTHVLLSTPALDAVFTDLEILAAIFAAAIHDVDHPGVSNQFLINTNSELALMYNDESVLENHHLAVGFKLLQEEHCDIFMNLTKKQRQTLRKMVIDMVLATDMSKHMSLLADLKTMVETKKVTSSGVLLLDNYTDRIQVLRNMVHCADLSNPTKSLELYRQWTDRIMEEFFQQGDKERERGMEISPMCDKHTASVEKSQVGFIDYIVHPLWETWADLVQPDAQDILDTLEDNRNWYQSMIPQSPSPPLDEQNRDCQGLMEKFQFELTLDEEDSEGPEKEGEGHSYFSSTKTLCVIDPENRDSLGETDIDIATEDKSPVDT

Turning to `CCOC(=O)c1cc(-c2ccccc2)n(-c2ccc(-c3ccc(OC)cc3)cc2)c1C(=O)c1ccccc1`, the inhibition in assay [1] was determined as 24.8%.
As for `CCOC(=O)c1cc(-c2ccccc2)n(-c2ccc(/C(C)=C/C(=O)OC)cc2)c1C(=O)c1ccccc1`, the inhibition in assay [1] is 76.7%; in assay [2], “Dose-dependent effect”.
As to `CCOC(=O)c1cc(-c2ccccc2)n(-c2ccc(/C=C/C(=O)OC)cc2)c1C(=O)c1ccccc1`, the inhibition in assay [1] was found to be 45.2%.
Consider `CCOC(=O)/C=C/c1ccc(-n2c(-c3ccccc3)cc(C(=O)OCC)c2C(=O)c2ccccc2)cc1`, for which the inhibition is 74.7% in assay [1] and “Dose-dependent effect” in assay [2].
Consider `CCOC(=O)c1cc(-c2ccccc2)n(-c2ccc(/C=C/C(=O)OC(C)(C)C)cc2)c1C(=O)c1ccccc1`, for which the inhibition in assay [1] came out at 36.1%.
On the same count and under the same terms, the result for `CCCCCCC#Cc1ccc(-n2c(-c3ccccc3)cc(C(=O)OCC)c2C(=O)c2ccccc2)cc1` reads 22.1%.
